Experimental data reported in ChEMBL document CHEMBL2311398 (J Med Chem, 2013).

Key:
[1] = target: Growth hormone secretagogue receptor type 1 (Homo sapiens, UniProt Q92847); test: Agonist activity at GHSR (unknown origin)
[2] = target: T1, Motilin receptor (Homo sapiens, UniProt O43193); test: Antagonist activity at MLNR (unknown origin)
[3] = target: T1, Motilin receptor; test: Agonist activity at MLNR (unknown origin)

T1 sequence (O43193 whole entry): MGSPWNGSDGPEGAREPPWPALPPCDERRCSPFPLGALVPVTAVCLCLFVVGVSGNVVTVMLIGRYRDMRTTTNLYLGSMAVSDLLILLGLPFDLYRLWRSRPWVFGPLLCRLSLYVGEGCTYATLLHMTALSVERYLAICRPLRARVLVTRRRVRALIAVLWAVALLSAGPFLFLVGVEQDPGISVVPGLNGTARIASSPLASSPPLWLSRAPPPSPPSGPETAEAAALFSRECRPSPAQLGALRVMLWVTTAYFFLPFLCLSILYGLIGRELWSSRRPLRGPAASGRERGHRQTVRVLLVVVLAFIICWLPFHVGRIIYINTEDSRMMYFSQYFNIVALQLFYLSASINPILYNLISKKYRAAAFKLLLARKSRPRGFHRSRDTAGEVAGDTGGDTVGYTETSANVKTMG
Sequence of Growth hormone secretagogue receptor type 1 (Q92847 whole entry): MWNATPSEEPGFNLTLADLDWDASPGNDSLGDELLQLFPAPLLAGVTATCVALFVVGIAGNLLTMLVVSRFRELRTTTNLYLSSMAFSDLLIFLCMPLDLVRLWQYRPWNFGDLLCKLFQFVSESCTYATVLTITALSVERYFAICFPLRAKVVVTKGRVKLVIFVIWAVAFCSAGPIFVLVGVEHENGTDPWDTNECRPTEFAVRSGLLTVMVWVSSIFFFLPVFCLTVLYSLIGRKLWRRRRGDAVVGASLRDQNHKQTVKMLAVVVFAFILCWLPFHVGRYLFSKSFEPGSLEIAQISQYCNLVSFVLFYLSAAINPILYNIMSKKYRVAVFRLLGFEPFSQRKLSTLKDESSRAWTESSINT

Row | Compound | IC50 [2] [nM] | further results
1 | COc1cccc(CCN(Cc2ccccc2-c2ccc(CN3C[C@@H](C)N[C@@H](C)C3)cc2)C(=O)NC2CCCCC2)c1 | – | EC50 [1]: 126 nM
2 | CC[C@H]1OC(=O)[C@H](C)[C@@H](O[C@H]2C[C@@](C)(OC)[C@@H](O)[C@H](C)O2)[C@H](C)[C@@H](O[C@@H]2O[C@H](C)C[C@H](N(C)C(C)C)[C@H]2O)[C@]2(C)CC(C)=C(O2)[C@H](C)C(=O)[C@]1(C)OC | 3.98 | –
3 | C[C@@H]1CN(Cc2ccc(-c3cccnc3C(=O)N3CCC(Nc4ccc(F)cc4)CC3)cc2)C[C@H](C)N1 | 3.98 | –
4 | CCNC(=O)[C@H](Cc1ccc(O)c(C(C)(C)C)c1)C(N)C(=O)[C@H](C(C)C)N(C)C(=O)[C@H](Cc1ccc(F)cc1)NC (some centres undefined) | – | Ki [3]: 2.63 nM
